Results reported in US10550130B2, “Benzo-thiazolo-imidazole compounds and uses thereof” (KING SAUD UNIVERSITY, priority 2015, dated 2020).

How the values were obtained:
[1] = Apparent toxicity (body weight, general signs) in tumor-bearing mice; assay type: in vivo; settings: 200 mg/kg intraperitoneal, three doses
Method: Nude mice (Jackson Laboratories, Bar Harbor, Me., USA) were injected with 4×10^6 cells of MDA-MB-468 in the mammary pad and tumor size was measured weekly using a caliper. When the tumor reached approximately 100 mm^3 diameter the mice were divided into a control group and a group treated with KSA-101696 200 mg/kg via intraperitoneal injection (three cycles every four days). Apparent toxicity as determined by body weight loss is recorded by measuring total body weight. Breeding, care and sacrifice of the animals were carried out in accordance with the protocols approved by the Animal Care and Use Committee of the King Faisal Specialist Hospital and Research Centre.
Because of the observed selective cytotoxic effect of compound KSA-101696 against cancer cells and the tolerance of normal cells and normal stem cells in vitro, a high dose of compound KSA-101696 (200 mg/kg) was used on mice.

MDA-MB-468 = assay: Annexin V binding by flow cytometry (apoptosis); assay type: cell-based
Method: (§1) It is known that loss of phospholipid asymmetry of the plasma membrane is an early event of apoptosis. The annexin V binds to negatively charged phospholipids, like phosphatidylserine. During apoptosis, the cells react to annexin V once chromatin condenses but before the plasma membrane loses its ability to exclude propidium iodide (PI).
(§2) Annexin-V staining was performed by using Vybrant Apoptosis Assay Kit #2 (Molecular Probes) following the manufacturer's recommendations. Annexin-V stained cells were analyzed by flow cytometry, measuring the fluorescence emission between 515 nm to 545 nm.
(§3) To evaluate the selective-apoptotic effect of the compound in cancer cells but not normal cells, the cancer cell lines SKBR3, MDA-MB-468, and normal cells MCF-10 A, HSFN1 (human foreskin cells) and BM4 (bone marrow derived mesenchymal stem cells) were used. […] Upon treatment of cells with 20 μM for 48 h, cells were stained with Annexin-V and PI and binding of Annexin-V and PI to the cells was determined by flow cytometry.
(§4) In a next step, it was investigated whether there was a correlation between Numb protein expression and sensitivity of a cell line to the apoptotic effects of KSA-101696. Apoptotic cells were determined by Annexin-V staining as described in Example 1.

SKBR-3 = assay: Annexin V binding by flow cytometry (apoptosis); assay type: cell-based
Method: as §1, §2, §3, §4

MDA-MB-231 cells = assay: Migration assay; assay type: cell-based; settings: Homo sapiens, 2.5 μM to 20 μM, read-out: IC50, migration capacity
Method: To assess the metastatic potential of tumor cells, their migration and invasion was evaluated using the 24-well BD BioCoat Matrigel Invasion Chamber as per the manufacturer guideline (BD Bioscience). In brief, 750 μl of migration buffer (serum-free media with or without treatment) or chemoattractants (serum-containing media) were added to the lower wells. Cells were washed three times in migration media and 500 μl (1-2×10^5) of cells were added to the upper wells separated by an 8 micron pore size PET membrane with a thin layer of matrigel basement membrane matrix (for invasion) or without (for migration). The membranes were stained with Diff Quick stain (Fisher Scientific) after removing the non-migrated cells from the top of the membrane with Q-tips. After air drying, the membranes were cut and mounted on slides with oil and cells that had migrated to the underside of the filter were counted using a light microscope (Zeiss Axio Observer) in five randomly selected fields (magnification: 40×). Each assay was performed in triplicate and repeated at least five times. The results were expressed as mean±SD of migrating cells per field counted (FIGS. 6A-6B).

MCF-7 cells = assay: Flow cytometric analysis of cellular DNA content (cell cycle distribution); assay type: cell-based; settings: 20 μM, 8, 16, 12 and 48 h
Method: 2×10^6 cells were fixed in 1 ml ethanol (70%) for 60 min at room temperature. Harvested cells were resuspended in 1 ml Na citrate (50 mM) containing 250 μg RNase A and incubated at 50° C. for 60 min. Next, cells were resuspended in the same buffer containing 4 μg propidium iodide (PI) and incubated for 30 min before being analyzed by flow cytometry (Becton Dickinson, San. Jose, Calif., USA). The percentage of cells in various cell cycle phases was determined by using Cell Quest Pro software (Becton Dickinson).
To gain insight into the mechanism by which anti-proliferation was achieved, the effect on cell cycle distribution was investigated by fluorescence-activated cell sorting (FACS) analysis. […] This was also accompanied by a compensatory decrease in G1 phase cells. Based on histograms the compound blocks the cells on early stage of mitosis, thereby inhibiting the transition of the cells to complete mitosis.

[2] = system: colony forming SKBR3 cells; assay: 2-D colony formation assay; assay type: cell-based; settings: 5000 viable cells from the ALDEFLUOR assay cells; 60 mm dish
Method: Cells were treated with different concentration of the compound or control medium containing 0.1% DMSO for 72 h. Cells were harvested and counted by using trypan blue to exclude the dead cells. A 5000 viable cells of treated and control cells were suspended in 3 ml DMEM supplemented with 10% FBS (Cambrex Bio Science) and seeded in a 60 mm tissue culture dish (Falcon, BD). The next day, a new fresh media was added and the cells were allowed to grow forming colonies for 14 d. The cells were then stained with methylene blue (Sigma-Aldrich, St. Louis, Mo., USA) and colonies containing more than 20 cells were counted.
Thus, from the same cells as used in the ALDEFLUOR assay, 5000 viable cells were seeded in a 60 mm tissue culture dish.

COc1ccc(-c2csc3nc4ccccc4n23)cc1 [KSA-101696, 3-(4-methoxyphenyl)benzo[4,5]imidazo[2,1-b]thiazole]
signs of general toxicity [1]: no convulsions, CNS stimulation, diarrhea, increased urination, miosis or mydriasis
weight loss [1]: no measurable weight loss
apoptosis (Annexin-V) in relation to Numb expression (MDA-MB-468; MDA-MB-468, low levels of Numb expression, FIG. 9B): increased apoptosis
apoptosis (Annexin-V and PI) (MDA-MB-468; MDA-MB-468, 20 μM, 48 h): induced apoptosis
apoptosis (Annexin-V) in relation to Numb expression (SKBR-3; SKBR-3, low levels of Numb expression, FIG. 9B): increased apoptosis
apoptosis (Annexin-V and PI) (SKBR-3; SKBR-3, 20 μM, 48 h): induced apoptosis
IC50 (MDA-MB-231 cells): ~7.5 µM
cell cycle distribution (MCF-7 cells): accumulation of cells in G2/M phase in a time-dependent manner
inhibition of colony forming cells [2]: showed the same activity in inhibition of colony forming cells
